According to US20250127696A1, “COMPOSITION FOR PREVENTING OR IMPROVING SKIN-AGING CONTAINING A THYMOL ESTER-BASED COMPOUND” (AMOREPACIFIC CORPORATION, priority 2023, published 2025):

Legend:
Type in all cases: cell-based, human
melanocytes [1] = assay: Predicted transcriptome age (RNA-age) of melanocytes; conditions: 10 ppm, 24 hours, vs untreated control; RNAAgeCalc on FPKM data, skin tissue; FIG. 2
Experimental: (§1) Melanocytes were purchased from Cascade Biologics as cells cultured in the foreskin of newborn African-American males, and cultured using Medium254 medium mixed with human melanocyte growth supplement (Life technologies).
RNA was extracted from melanocytes treated with 10 ppm of Melasolv for 24 hours using TRIzol reagent (Life technologies). This RNA was used to prepare a library using the Illumina TruSeq Stranded Total RNA Library Prep kit (Illumina, San Diego, CA, USA), and then RNA-sequencing was performed using the NovaSeq 6000 platform (Illumina).
Thereafter, a model for predicting age based on approximately 16,000 gene expression values of RNA-seq data was applied to measure the RNA-age of the untreated control melanocytes (—in the graph of FIG. 2) and the RNA-age of the melanocytes treated with Melasolv. Specifically, the RNA-age used RNAAgeCalc package, which can calculate transcriptome age from RNAseq data. Among the transcriptome data, FPKM data was entered as input and skin tissue was entered as an argument for calculation. • (RNAAgeCalc pakage: https://bioconductor.org/packages/release/bioc/html/RNAAgeCalc.html, • Ren X, Kuan P F (2020). “A multi-tissue transcriptional age calculators.” PLOS ONE, 15(8),-20. doi: 10.1371/journal.pone.0237006)

melanocytes [2] = assay: Observation of cell morphology after UVB-induced senescence; conditions: UVB 5 mJ/cm^2 twice at 24-hour intervals, then treated and incubated 2 weeks; FIG. 3
Experimental: as §1
Melanocytes were irradiated with 5 mJ/cm^2 of UVB twice at 24-hour intervals using a 1 UVB UV irradiator (Bio-Sun), and then treated with Melasolv and incubated for 2 weeks. A photograph of the cells is taken using an optical microscope (ECLIPSE TS100 from NIKON), and the shape of the cells is examined. Referring to FIG. 3, when treated with ultraviolet (UVB) that induce cellular senescence (Chr UVB; Chronic UVB in FIG. 3), it could be confirmed that the skin cells were flattened or enlarged, as shown by three spots that were slightly larger than the others in the middle of the photograph.

[3] = test system: β-galactosidase in melanocytes; assay: beta-galactosidase assay (senescence staining) after UVB; conditions: UVB 5 mJ/cm^2 twice at 24-hour intervals, then treated and incubated 2 weeks; vs UVB only; FIG. 4
Experimental: as §1
Melanocytes were irradiated with 5 mJ/cm^2 of UVB twice at 24-hour intervals using a 1 UVB UV irradiator (Bio-Sun), and then treated with Melasolv and incubated for 2 weeks. To measure the degree of cellular senescence, a beta-galactosidase assay was performed using a beta-gal staining kit from Life technologies. A photograph was taken using an optical microscope (ECLIPSE TS100 from NIKON), and then the number of cells with stained beta-galactosidase was counted.

SMILES: COc1cc(/C=C/C(=O)Oc2cc(C)ccc2C(C)C)cc(OC)c1OC [Melasolv, (5-methyl-2-propan-2-ylphenyl) (E)-3-(3,4,5-trimethoxyphenyl) prop-2-enoate]
- decrease of RNA-age of melanocytes (melanocytes [1]): about 4 years
- change in cell morphology (flattened or enlarged cells) (melanocytes [2]): reduces changes in skin cells caused by UVB
- β-galactosidase (number of stained cells) [3]: reduced to a statistically significant degree
